Test results taken from patent US20240140991A1, “ANTIBIOTIC NATURAL PRODUCT ANALOGUES” (THE QUEEN'S UNIVERSITY OF BELFAST, priority 2021, published 2024).
Converted amounts (≈) assume the structure as drawn. Where two headings read alike, the source gives them in different places. Positions of bridges follow the written chain, without caps; N, C: chain ends. Non-standard residues stand in square brackets, D forms with d. Residues, ends and D or L forms follow the SMILES beside them. *: point of attachment. Octanoyl(7-Me) = CC(C)CCCCCC(=O)*; dOrn = NCCC[C@@H](N)C(=O)O; Orn = NCCC[C@H](N)C(=O)O; Dap = NC[C@H](N)C(=O)O

Tests used:
[1] = tested on: Acinetobacter baumannii ATCC 17961; assay type: cell-based
Method in brief: (§1)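 Broth microdilution in MHB per CLSI; inoculum 2×10^5 CFU mL^−1 from log-phase TSB cultures at OD600 0.5. Plates incubated 16 hours at 37° C with shaking at 220 rpm. MIC is the lowest concentration preventing visible growth.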

[2] = tested on: Pseudomonas aeruginosa ATCC 27853; assay type: cell-based
Method in brief: as §1

[3] = tested on: Staphylococcus aureus USA300; assay type: cell-based
Method in brief: as §1

[4] = tested on: Escherichia coli ATCC 25922; assay type: cell-based
Method in brief: as §1

P. aeruginosa M-120 = assay type: cell-based, Pseudomonas aeruginosa
Method in brief: as §1

P. aeruginosa NRZ-03961 = assay type: cell-based, Pseudomonas aeruginosa
Method in brief: as §1

P. aeruginosa PAO1 = assay type: cell-based, Pseudomonas aeruginosa
Method in brief: as §1

E. coli ATCC 25922 MCR-1 = assay type: cell-based, Escherichia coli; details: E. coli ATCC 25922 MCR-1 (colistin resistant)
Protocol: (§2) Minimum inhibitory concentration (MIC) was determined by broth microdilution according to CLSI guidelines. Blood agar plates were inoculated with glycerol stocks of Escherichia coli ATCC 25922, E. coli ATCC 25922 MCR-1, E. coli MCR-1 (clinical isolate from Utrecht Medical Center, NL), E. coli EQAS MCR-2 (clinical isolate from Wageningen University and Research, NL), Kiebsielia pneumoniae ATCC 11228, K. pneumoniae ATCC 13883, K. pneumonia 2048 (clinical isolate from Vrije Universiteit Amsterdam Medical Center, NL), K. pneumonia JS-123 (clinical isolate from Utrecht Medical Center, NL), Acinetobacter baumannii ATCC 17961, A. baumannil ATCC 17978, A. baumannii 2018-006 (clinical isolate from Rijksinstituut voor Volksgezondheid en Milieu, NL), A. baumannii MDR (clinical isolate from Vrije Universiteit Amsterdam Medical Center, NL), Pseudomonas aeruginosa ATCC 27853, P. aeruginosa PAO1, P. aeruginosa NRZ-03961 (Reference strain from Das Nationale Referenzzentrum für gramnegative Krankenhauserreger, DE), P. aeruginosa M-120 (clinical isolate from Leiden University Medical Center, NL) and Staphylococcus aureus USA300 (clinical isolate from Texas Children's Hospitalm, USA). E. coli 25922 MCR1 was grown on LB agar supplemented with kanamycin. The inoculated agar plates were then incubated for 16 hours at 37° C. Individually grown colonies were subsequently used to inoculate 3 mL aliquots of TSB that were then incubated at 37° C. with shaking at 220 rpm. In parallel, the compounds to be assessed were serially diluted with Mueller-Hinton broth (MHB) in polypropylene 96-well plates (50 μL in each well). Once the OD600 of the bacterial suspensions reached 0.5, the bacteria were diluted with MHB (final concentration 2×10^5 CFU mL^−1) and added to the microplates containing the test compounds (50 μL to each well, final volume: 100 μL). The well-plates were sealed with an adhesive membrane and after 16 hours of incubation at 37° C. with shaking at 220 rpm the wells were visually inspected for bacterial growth. MIC values were defined as the lowest concentration of the compound that prevented visible growth of bacteria.
(§3) In the table above, “MCR” denotes that one of the MCR family of genes, which confers colistin resistance, is present in the bacterial strain. Thus, E. coli ATCC 25922 MCR-1, E. coli MCR-1 and E. coli EQAS MCR-2 are each colistin resistant. […] Therefore, laterocidamide may overcome some of the challenges faced due to antibiotic resistance.

E. coli EQAS MCR-2 = assay type: cell-based, Escherichia coli; details: E. coli EQAS MCR-2 clinical isolate (colistin resistant)
Protocol: as §2, §3

E. coli MCR-1 = assay type: cell-based, Escherichia coli; details: E. coli MCR-1 clinical isolate (colistin resistant)
Protocol: as §2, §3

K. pneumoniae 2048 = assay type: cell-based, Klebsiella pneumoniae
Method in brief: as §1

K. pneumoniae ATCC 13883 = assay type: cell-based, Klebsiella pneumoniae
Method in brief: as §1

K. pneumoniae ATCC 11228 = assay type: cell-based, Klebsiella pneumoniae
Method in brief: as §1

K. pneumoniae JS-123 = assay type: cell-based, Klebsiella pneumoniae
Method in brief: as §1

A. baumannii 2018-006 = assay type: cell-based, Acinetobacter baumannii
Method in brief: as §1

A. baumannii ATCC 17978 = assay type: cell-based, Acinetobacter baumannii
Method in brief: as §1

A. baumannii MDR = assay type: cell-based, Acinetobacter baumannii; details: A. baumannii MDR clinical isolate
Method in brief: as §1

[5] = In vivo tolerability study; set-up: species or system mice (ICR, CD1); details: subcutaneous, 3 doses at 8-h intervals, up to 40 mg/kg (total daily dose 120 mg/kg), naive mice
Protocol: Animal Strain: Mice used in these studies were supplied by Charles River (Margate UK) and were specific pathogen free. The strain of mice used was ICR (also known as CD1 Mice) which is a well characterized outbred murine strain. Mice (male) were 11-15 g on receipt and were allowed to acclimatise for at least 7 days.
Test compounds: Compound 6 (i.e. laterocidamide) was dissolved in water for injection in which it formed a clear colourless solution. Polymyxin B was dissolved in saline for injection to produce a clear colourless solution.
Tolerability study: The tolerability of compound 6 was assessed in the same mouse strain used for the efficacy studies. […] The mice used in the tolerability study were naïve and were not immunosuppressed or infected.

E. coli ATCC 25922 = assay: Mouse thigh abscess (neutropenic thigh infection) efficacy model; assay type: in vivo, mice (ICR, CD1)
Protocol: Efficacy study: The in vivo efficacy of compound 6 was assessed in a mouse thigh abscess model where both thighs of each mouse were infected with E. coli ATCC 25922 Immunosuppression: Mice were rendered neutropenic with subcutaneous injections of cyclophosphamide at 150 mg/kg 4 days before infection and 100 mg/kg 1 day before infection. The immunosuppression regime leads to neutropenia starting 24 h post administration of the first injection, which continues throughout the study.
Infection: The bacterial strain used was E. coli ATCC 25922. An aliquot of a previously prepared frozen stock of the strain was thawed and diluted in sterile PBS to the desired inoculum just prior to infection. […]
Endpoints: 1 h and 20.5 (planned 25) h post-infection, the clinical condition of all animals was assessed prior to humane euthanasia using pentobarbitone overdose, and the thighs were removed and weighed. Thigh samples were homogenized in 3 mL ice cold sterile PBS; the homogenates were quantitatively cultured onto CLED agar and incubated at 37° C. for 18-24 h before colonies were counted.
Data analysis: The data from the culture burdens were analysed using appropriate non-parametric statistical models (Kruskal-Wallis using Conover-Inman to make all pairwise comparisons between groups) with StatsDirect software v. […]

HepG2 cells = assay: Cytotoxicity MTT assay; details: HepG2, 128 μg/mL, 24 h
Protocol: In addition to a single vehicle control, compounds (diluted from DMSO stock) were added to each well to obtain in a final 128 μg/mL concentration (max. final DMSO concentration 0.5%) for all compounds except for oritavancin which was administered at 50 μM. Incubation was done for 24 h at 37° C., 7% CO2. After the incubation, MTT was added to each well at a final concentration of 0.40 mg/mL. The plates were then incubated for 2 h at 37° C., 7% CO2. Medium was carefully removed via suction, and purple formazan crystals were resuspended in 100 μL DMSO. Absorbance was read at 570 nm using a Clariostar plate reader. The data was then analysed with GraphPad Prism software. Technical triplicates for each condition were used, along with biological duplicates.

CCC(C)CCC(=O)N[C@H](CC(N)=O)C(=O)N[C@H](Cc1ccc(O)cc1)C(=O)N[C@H](Cc1c[nH]c2ccccc12)C(=O)N[C@H](CCCN)C(=O)N[C@@H](CCCN)C(=O)NCC(=O)N[C@H](CCCN)C(=O)N[C@@H](Cc1c[nH]c2ccccc12)C(=O)N[C@H]1COC(=O)[C@H](CO)NC(=O)CNC(=O)[C@H]([C@@H](C)CC)NC1=O (single isomer, unassigned) [Ser9-Brevicidine]
Minimum inhibitory concentration (MIC) ([1]; ATCC 17961): 0.5 to 1 µg/mL | Minimum inhibitory concentration (MIC) ([2]; ATCC 27853): 1 µg/mL (≈ 0.664 µM) | Minimum inhibitory concentration (MIC) ([3]; USA300): >64 µg/mL | Minimum inhibitory concentration (MIC) ([4]; ATCC 25922): 4 µg/mL (≈ 2.66 µM) | Minimum inhibitory concentration (MIC) (P. aeruginosa M-120; M-120): 2 µg/mL (≈ 1.33 µM) | Minimum inhibitory concentration (MIC) (P. aeruginosa NRZ-03961; NRZ-03961): 4 µg/mL (≈ 2.66 µM) | Minimum inhibitory concentration (MIC) (P. aeruginosa PAO1; PAO1): 2 to 4 µg/mL | Minimum inhibitory concentration (MIC) (E. coli ATCC 25922 MCR-1): 4 µg/mL (≈ 2.66 µM) | Minimum inhibitory concentration (MIC) (E. coli EQAS MCR-2): 4 to 8 µg/mL | Minimum inhibitory concentration (MIC) (E. coli MCR-1): 2 µg/mL (≈ 1.33 µM) | Minimum inhibitory concentration (MIC) (K. pneumoniae 2048; 2048): 4 µg/mL (≈ 2.66 µM) | Minimum inhibitory concentration (MIC) (K. pneumoniae ATCC 13883; ATCC 13883): 2 µg/mL (≈ 1.33 µM) | Minimum inhibitory concentration (MIC) (K. pneumoniae ATCC 11228; ATCC 11228): 2 µg/mL (≈ 1.33 µM) | Minimum inhibitory concentration (MIC) (K. pneumoniae JS-123; JS-123): 2 µg/mL (≈ 1.33 µM) | Minimum inhibitory concentration (MIC) (A. baumannii 2018-006; 2018-006): 2 µg/mL (≈ 1.33 µM) | Minimum inhibitory concentration (MIC) (A. baumannii ATCC 17978; ATCC 17978): 2 µg/mL (≈ 1.33 µM) | Minimum inhibitory concentration (MIC) (A. baumannii MDR): 1 to 2 µg/mL

CC[C@H](C)[C@@H]1NC(=O)[C@@H](NC(=O)[C@H](Cc2c[nH]c3ccccc23)NC(=O)[C@@H](CCCN)NC(=O)CNC(=O)[C@H](CCCN)NC(=O)[C@@H](CCCN)NC(=O)[C@@H](Cc2c[nH]c3ccccc23)NC(=O)[C@@H](Cc2ccc(O)cc2)NC(=O)[C@@H](CO)NC(=O)CCCCCC(C)C)CNC(=O)CNC(=O)CNC(=O)[C@H](CC(N)=O)NC1=O [Laterocidamide, laterocidamide] ({Octanoyl(7-Me)}-[dS][dY][dW][dOrn][Orn]G[dOrn]W[Dap]INGG; lactam 9-C)
MIC values against E. coli ATCC 25922 ([4]; in vitro activity quoted in the in vivo section): 1 µg/mL (≈ 0.629 µM) | Minimum inhibitory concentration (MIC) (P. aeruginosa M-120; M-120): 2 to 4 µg/mL | tolerability ([5]; listed as Compound 6): good tolerability | tolerability ([5]; listed as compound 6): well tolerated | reduction in bacterial load relative to the untreated group (E. coli ATCC 25922; 40 mg/kg SC q8h, neutropenic mice, thigh burden): ~5 log | dose response of thigh burden (E. coli ATCC 25922; 10, 20 and 40 mg/kg SC q8h): clear dose response | cytotoxicity / cell viability (HepG2 cells): completely non-toxic | cytotoxicity / cell viability (HepG2 cells; listed as compound 6): low cytotoxicity | Minimum inhibitory concentration (MIC) (K. pneumoniae JS-123; JS-123): ≤0.5 µg/mL | Minimum inhibitory concentration (MIC) (A. baumannii MDR): 4 µg/mL (≈ 2.52 µM)

colistin [reference compound]
Minimum inhibitory concentration (MIC) ([1]; A. baumannii ATCC 17961): ≤0.5 µg/mL | Minimum inhibitory concentration (MIC) ([2]; P. aeruginosa ATCC 27853): 1 µg/mL | Minimum inhibitory concentration (MIC) ([3]; S. aureus USA300 (Gram-positive)): >64 µg/mL | Minimum inhibitory concentration (MIC) ([4]; E. coli ATCC 25922): 0.25 to 0.5 µg/mL | Minimum inhibitory concentration (MIC) (P. aeruginosa M-120; P. aeruginosa M-120 clinical isolate): 1 µg/mL | Minimum inhibitory concentration (MIC) (P. aeruginosa NRZ-03961; P. aeruginosa NRZ-03961): <0.5 µg/mL | Minimum inhibitory concentration (MIC) (P. aeruginosa PAO1; P. aeruginosa PAO1): ≤0.5 µg/mL | Minimum inhibitory concentration (MIC) (E. coli ATCC 25922 MCR-1): 2 to 4 µg/mL | Minimum inhibitory concentration (MIC) (E. coli EQAS MCR-2): 2 to 4 µg/mL | Minimum inhibitory concentration (MIC) (E. coli MCR-1): 2 to 4 µg/mL | Minimum inhibitory concentration (MIC) (K. pneumoniae 2048; K. pneumoniae 2048 clinical isolate): 2 µg/mL | Minimum inhibitory concentration (MIC) (K. pneumoniae ATCC 13883; K. pneumoniae ATCC 13883): 1 µg/mL | Minimum inhibitory concentration (MIC) (K. pneumoniae ATCC 11228; K. pneumoniae ATCC 11228): ≤0.5 µg/mL | Minimum inhibitory concentration (MIC) (K. pneumoniae JS-123; K. pneumoniae JS-123 clinical isolate): ≤0.5 µg/mL | Minimum inhibitory concentration (MIC) (A. baumannii 2018-006; A. baumannii 2018-006 clinical isolate): ≤0.5 µg/mL | Minimum inhibitory concentration (MIC) (A. baumannii ATCC 17978; A. baumannii ATCC 17978): ≤0.5 µg/mL | Minimum inhibitory concentration (MIC) (A. baumannii MDR): ≤0.5 µg/mL
